Data taken from patent US12329726B2, “Biomarkers for efficacy of prophylactic treatments against stress-induced affective disorders” (The Trustees of Columbia University in the City of New York, priority 2017, dated 2025).

Tests used:
[1] = system: plasma amino acid-derived neurotransmitters and precursors; assay: Separate plasma analysis of metabolites involved in neurotransmission, stressed mice; assay type: in vivo
129S6/SvEvTac mice [2] = assay: 3-shock contextual fear conditioning (CFC), freezing; conditions: ketamine 30 mg kg-1 i.p., single dose 1 week before 3-shock CFC; vs saline
mouse models of stress = conditions: cited from earlier work
HPC metabolites [3] = assay: Untargeted metabolomic profiling of hippocampus (HPC), stressed mice (ketamine + CFC)
PFC metabolites [4] = assay: Metabolomic profiling of PFC, non-stressed mice (ketamine, no shock)
plasma metabolites [5] = assay: Metabolomic profiling of plasma, non-stressed mice (ketamine, no shock); conditions: prophylactic ketamine, mice not administered shocks
[6] = system: treatment-resistant MDD (TRD) patients; conditions: cited from earlier work
HPC metabolites [7] = assay: Metabolomic profiling of HPC, non-stressed mice (ketamine, no shock); conditions: context exposure group (no shock), following prophylactic ketamine administration
plasma metabolites [8] = assay: Untargeted metabolomic profiling of plasma, stressed mice (ketamine + CFC); conditions: prophylactic ketamine + stress
PFC metabolites [9] = assay: Untargeted metabolomic profiling of prefrontal cortex (PFC), stressed mice (ketamine + CFC)
129S6/SvEvTac mice [10] = assay: Context exposure without shocks (no-shock control), freezing; conditions: ketamine 30 mg kg-1 i.p., 1 week before context exposure without shocks; vs saline
[11] = target: T1, kappa-opioid receptor (KOR) (Rattus norvegicus, UniProt P34975); conditions: administered before the FPS test; cited from earlier work
T1 construct: host or cells: live rats (behavioural test)

[12] = Plasma, CFC group, following prophylactic ketamine administration
[13] = single injection 30 mg kg-1, 1 week before a stressor
[14] = HPC, CFC group, following prophylactic ketamine administration
[15] = prophylactic ketamine + stress, MetaboAnalyst 3.0
[16] = ketamine 30 mg/kg without CFC stress
[17] = PFC, CFC group, following prophylactic ketamine administration
[18] = prophylactic ketamine + stress, vs saline

T1 sequence (P34975 whole entry): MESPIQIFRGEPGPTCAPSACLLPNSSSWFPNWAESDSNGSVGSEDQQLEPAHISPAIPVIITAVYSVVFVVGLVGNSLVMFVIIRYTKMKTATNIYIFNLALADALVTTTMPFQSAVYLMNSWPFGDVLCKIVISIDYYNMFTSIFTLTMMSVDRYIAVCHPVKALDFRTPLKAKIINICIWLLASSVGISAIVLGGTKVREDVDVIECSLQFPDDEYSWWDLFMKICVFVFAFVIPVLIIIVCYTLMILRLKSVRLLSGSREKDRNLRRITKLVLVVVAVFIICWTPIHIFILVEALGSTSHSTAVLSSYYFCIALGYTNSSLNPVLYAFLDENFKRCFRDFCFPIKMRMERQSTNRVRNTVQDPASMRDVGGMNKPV

CNC1(c2ccccc2Cl)CCCCC1=O (racemic) [ketamine, (RS)-2-(2-chlorophenyl)-2-(methylamino)cyclohexanone]
5-Hydroxy-L-tryptophan (5-HTP) level, change [1, 12]: Increase
D-Serine (Ser) level, change [1, 12]: Decrease
Gamma-aminobuytric acid (GABA) level, change [1, 12]: Decrease
L-Glutamic acid (Glu) level, change [1, 12]: Decrease
N-Acetyl-L-tyrosine (NALT) level, change [1, 12]: Decrease
O-Phosphoethanolamine (PE) level, change [1, 12]: Increase
Plasma serine and glutamic acid (excitatory neurotransmitters) ([1]; prophylactic ketamine + stress): serine and glutamic acid were decreased
Fear response (freezing) during context re-exposure (129S6/SvEvTac mice [2]): attenuated the fear response
Freezing behavior during CFC encoding (training) (129S6/SvEvTac mice [2]): did not alter freezing behavior during CFC encoding
Time window for prophylactic efficacy before a stressor (mouse models of stress; not 1 month or 1 hour before): approximately 1 week
Duration of protection after injection (mouse models of stress; [13]): up to 4 weeks
Stress-induced depressive-like behavior and social avoidance behavior (mouse models of stress; [13]): prevented stress-induced depressive-like behavior and social avoidance behavior
D-Alanine (Ala) level, change (HPC metabolites [3]; [14]): Increase
Gamma-aminobuytric acid (GABA) level, change (HPC metabolites [3]; [14]): Increase
L-Glutamic acid (Glu) level, change (HPC metabolites [3]; [14]): Increase
O-Phosphoethanolamine (PE) level, change (HPC metabolites [3]; [14]): Increase
Taurine (Tau) level, change (HPC metabolites [3]; [14]): Increase
Pathway analysis of changed metabolites in the HPC: further pathways (HPC metabolites [3]; [15]): altered alanine, aspartate, and glutamate metabolism; glutamine and glutamate metabolism; and taurine and hypotaurine metabolism
Pathway analysis of changed metabolites in the HPC: purine metabolism (HPC metabolites [3]; [15]): purine metabolism was also significantly altered
Number of purine metabolites significantly altered in one hemisphere of PFC or HPC, no stress (PFC metabolites [4]; [16]): 3 metabolites
Number of pyrimidines significantly altered in one hemisphere of PFC or HPC, no stress (PFC metabolites [4]; [16]): 2
Purine metabolite changes in PFC and HPC without stress (PFC metabolites [4]; prophylactic ketamine without stress): these changes were not observed
Amino acid-derived neurotransmitter metabolites in brain of non-stressed mice (PFC metabolites [4]; prophylactic ketamine, non-stressed mice): only the inhibitory neurotransmitter metabolite taurine was changed
Purine or pyrimidine metabolites in plasma, no shocks (plasma metabolites [5]): no changes in purines or pyrimidine metabolites were observed
Persistence of antidepressant effects ([6]; following a single infusion): 1-2 weeks
Antidepressant onset ([6]; single infusion, TRD patients): ≤ 2 h
Taurine (Tau) level, change (HPC metabolites [7]): Increase
Pathway analysis of changed metabolites in plasma (plasma metabolites [8]): purine metabolism, pyrimidine metabolism, the citrate cycle (TCA cycle), and the pentose phosphate pathway were most significantly changed
Ribose and ribulose phosphate (pentose phosphate pathway intermediates) in plasma (plasma metabolites [8]): significantly changed
Purine metabolites in the plasma (plasma metabolites [8]; vs saline): significantly increased purine metabolites
Pyrimidine metabolites in the plasma (plasma metabolites [8]; with the exception of 5,6-dihydrouridine): increased expression of pyrimidine metabolites
D-Serine (Ser) level, change (PFC metabolites [9]; [17]): Decrease
Glycine (Gly) level, change (PFC metabolites [9]; [17]): Decrease
L-Tyrosine (Tyr) level, change (PFC metabolites [9]; [17]): Decrease
Phenylalanine (Phe) level, change (PFC metabolites [9]; [17]): Decrease
Correlation of dUDP expression in the PFC with freezing levels upon context re-exposure (PFC metabolites [9]; mice given prophylactic ketamine prior to stress, regression analysis): positively correlated with freezing levels
Number of metabolites changed in the same direction in both hemispheres of the PFC and HPC (PFC metabolites [9]; of the 8 changed, prophylactic ketamine + stress): 6 metabolites
Number of metabolites changed in both hemispheres of the PFC and HPC (PFC metabolites [9]; prophylactic ketamine 30 mg kg-1 + CFC stressor, PFC and HPC): 8 metabolites
Pathway analysis of changed metabolites in the PFC (PFC metabolites [9]; [15]): purine metabolism; phenylalanine, tyrosine, and tryptophan metabolism; and phenylalanine metabolism are most significantly changed
Levels of AMP and ATP in PFC, HPC and plasma (PFC metabolites [9]; prophylactic ketamine + stress, both hemispheres of PFC and HPC, and plasma): increases levels of adenosine monophosphate (AMP) and ATP
Inhibitory neurotransmitter metabolites in PFC and HPC (PFC metabolites [9]; prophylactic ketamine + stress, e.g. alanine, GABA, taurine): almost all inhibitory neurotransmitter metabolites were increased
Excitatory neurotransmitter metabolites in PFC and HPC (PFC metabolites [9]; prophylactic ketamine + stress, e.g. serine, tyrosine, phenylalanine, exception glutamic acid): nearly all excitatory neurotransmitter metabolites were decreased
Adenosine and guanosine metabolites in both hemispheres of PFC and HPC (PFC metabolites [9]; [18]): increased
Inosine metabolites in both hemispheres of PFC and HPC (PFC metabolites [9]; [18]): decreased
Freezing behavior during context exposure or re-exposure, no shocks (129S6/SvEvTac mice [10]): did not alter freezing behavior during context exposure or re-exposure

Oc1ccc2c3c1O[C@H]1c4[nH]c5c(c4C[C@@]4(O)[C@@H](C2)N(CC2CC2)CC[C@]314)C[C@@]1(O)[C@H]2Cc3ccc(O)c4c3[C@@]1(CCN2CC1CC1)[C@H]5O4 [norBNI, nor-binaltorphimine]
Conditioned fear in FPS test [11]: attenuated conditioned fear
